In patent US20250051395A1, “PEPTIDES AND METHODS FOR USE IN TREATING PAIN” (TAFALGIE THERAPEUTICS, priority 2021, published 2025):

What was measured:
[1] = tested on: paw incision model (postoperative pain), C57Bl6 mice; assay: Paw incision (Brennan) postoperative pain model, Von Frey paw withdrawal threshold, curative treatment; type: in vivo; conditions: morphine oral, 1 mg/kg, D1 after paw incision
Experimental: Mice were anesthetized with ketamine (100 mg/kg IP) and xylazine (10 mg/kg IP) and a longitudinal incision was made through the skin and fascia of the right hind paw. Forceps were used to elevate the flexor digitorum brevis muscle longitudinally and an incision was made through the muscle with a scalpel, to cut it into two halves. The wound was closed with sutures, and the animals were allowed to recover and returned to their cages. The paw incision was used as postoperative pain model.
(§1) The Von Frey's uses Von Frey (VF) hair or fibers, which are small pieces of nylon rod, approximately 50 mm in length to test a rodent's sensitivity to a mechanical stimulus. In this test, the animal stands on an elevated mesh platform, and the Von Frey hairs are inserted through the mesh to poke the animal's hindpaw. Normal reactions for the animal include withdrawing or licking or shaking the paw. The “up-down” Von Frey method is used to determine the mechanical force required to elicit a paw withdrawal response in 50% of animals. Here, mice were placed in plastic chambers on a wire mesh grid and stimulated with von Frey filaments (Bioseb) by the “up-down” method (45) starting with a 1 g filament, and using 0.04 and 4 g filaments as the cutoffs.
The experiments were conducted on eight-week-old male WT C57Bl6. Three groups of 8 mice were used. […]

[2] = tested on: carrageenan model (inflammatory pain), C57Bl6 mice; assay: Carrageenan injection inflammatory pain model, Von Frey paw withdrawal threshold; type: in vivo; conditions: celecoxib subcutaneous, 20 mg/kg
Experimental: Inventors injected 20 μl of 1% λ-carrageenan (Sigma-Aldrich, 22049-5G-F) in 1×PBS into the plantar surface of the left hind paw of the mouse with a Hamilton syringe. The carrageenan injection was used as an inflammatory pain model.
as §1
The experiments were conducted on eight-week-old male WT C57Bl6. Three groups of 8 mice were used.
As previously described, measurement with Von Frey filaments by the up/down method for determining the baseline was done. Then, an intraplantar injection of 20 μl of carrageenan (1%) was performed into a hind paw. […] Celecoxib is a well-known drug used as positive control.

[3] = tested on: injury-induced mechanical hypersensitivity in mice; conditions: cited from earlier work
[4] = tested on: Spared Nerve Injury (SNI) model, C57Bl6 mice; assay: Spared Nerve Injury (SNI) model of neuropathic pain, Von Frey up-down paw withdrawal threshold; type: in vivo; conditions: for antalgic effect when administered orally: per os, 7 days after surgery, vs vehicle (FIG. 5)
Experimental: Mice were anesthetized with ketamine (100 mg/kg IP) and xylazine (10 mg/kg IP) and the left sciatic nerve was exposed under aseptic conditions. The distal trifurcation of the sciatic nerve was identified and the tibial and common peroneal branches were ligated with polypropylene nonabsorbable 6-0 sutures (Ethicon); 1 mm was cut out, leaving the sural branch intact. The wound was closed with sutures, and the animals were allowed to recover and returned to their cages.
as §1
The experiments were conducted on eight-week-old male WT C57Bl6 mice. Three groups of 8 mice were used. Peptide of SEQ ID NO: 1 is resuspended in 0.9% NaCl at [0.6 mg/mL]. The peptide was diluted and used at a concentration of 0.3 mg/kg in this study.
After having measured the base threshold of mice with Von Frey (VF) filaments by the up/down method, the SNI model is set into place. The mice are anesthetized, ligature of the tibial nerve and of the fibular nerve is put into practice and these two nerves are then severed. The sural nerve left intact develops neuropathy quite rapidly. The occurrence of neuropathy is ascertained after 3 days post-surgery. A decrease in the response threshold to Von Frey filaments of the ipsilateral paw is thereby observed.
7 days after surgery, the response threshold is again measured. 100 μl/10 g of each of the peptide solutions, of vehicle and pregabalin solution are then blind-injected subcutaneously for the experimenter.
The same protocol was used as described in 1.1 except that the administration of the peptide, vehicle and pregabalin was done 14 days after surgery using per os administration for the peptide and vehicle.
For per os administration, the peptide of SEQ ID NO: 1 was diluted at a concentration of 30 μg/mL in a solution of 1% w/v Hydroxypropylmethylcellulose (Sigma-aldrich #423238, batch MKCD3665), 0.5% v/v Tween 80 (Euromedex #2002-A, batch 100412/16S407), referred then after as HPMC solution (vehicle).
Vehicle and peptide solution were orally administered using two gavage needles. […]

[5] = pregabalin 5 mg/kg by gavage, day 14 post-SNI

Which response threshold [1] does the source give for `CN1CC[C@]23c4c5ccc(O)c4O[C@H]2[C@@H](O)C=C[C@H]3[C@H]1C5` [morphine] here?
The response threshold was “increase in the response threshold”.

For `Cc1ccc(-c2cc(C(F)(F)F)nn2-c2ccc(S(N)(=O)=O)cc2)cc1` [celecoxib], which “time of maximum antalgic effect” value [2] is on record?
The value was 2 h.

What does the source list for “TAFA-4 full length protein: human TAFA-4 mature protein of 105 amino acid residues, secreted neurokine of the prior art”?
mechanical hypersensitivity (inflammatory, post-operative, nerve injury-induced) ([3]; intrathecal and subcutaneous administration, male and female mice): reverses inflammatory, post-operative and nerve injury-induced mechanical hypersensitivity; prolonged nerve injury-induced mechanical hypersensitivity of TAFA-4 gene deleted mice ([3]; intrathecal injection, TAFA-4 gene deleted mice): reversed; antalgic effect when administered orally [4]: did not show significant antalgic effect; antalgic effect when administered orally ([4]; listed as TAFA4): No statistical differences

For `CC(C)C[C@H](CN)CC(=O)O` [pregabalin, reference compound], which “effect on mechanical threshold at 4 h post-administration” value [4, 5] is on record?
Its value is “completely abolished”.

What about the “time of maximum reversal effect on mechanical threshold” value [4, 5] of the same molecule?
Its value is 2 h.
